# In publication PMC6393351, “Linking Terpene Synthases to Sesquiterpene Metabolism in Grapevine Flowers” (Frontiers in Plant Science, 2019):
# Changes are numbered by the printed parent chain.
# Experiments:
# Assay in all cases: in vivo yeast expression, HS-SPME-GC-MS of volatiles
# Assay type in all cases: cell-based
# Settings in all cases: endogenous FPP of engineered yeast GT051, not added; pH 6, 5 mM Mg2+, 30 °C, 16 h
# VvivMATPS10 = biological target: T1, VvivMATPS10 (Vitis vinifera, UniProt A0A482AL43)
# T1 construct: full-length ORF from flower cDNA; yeast GT051 (GAL1 promoter); also transient expression in N. benthamiana (pEAQ-HT-DEST1)
# T1 sequence (A0A482AL43 1-560): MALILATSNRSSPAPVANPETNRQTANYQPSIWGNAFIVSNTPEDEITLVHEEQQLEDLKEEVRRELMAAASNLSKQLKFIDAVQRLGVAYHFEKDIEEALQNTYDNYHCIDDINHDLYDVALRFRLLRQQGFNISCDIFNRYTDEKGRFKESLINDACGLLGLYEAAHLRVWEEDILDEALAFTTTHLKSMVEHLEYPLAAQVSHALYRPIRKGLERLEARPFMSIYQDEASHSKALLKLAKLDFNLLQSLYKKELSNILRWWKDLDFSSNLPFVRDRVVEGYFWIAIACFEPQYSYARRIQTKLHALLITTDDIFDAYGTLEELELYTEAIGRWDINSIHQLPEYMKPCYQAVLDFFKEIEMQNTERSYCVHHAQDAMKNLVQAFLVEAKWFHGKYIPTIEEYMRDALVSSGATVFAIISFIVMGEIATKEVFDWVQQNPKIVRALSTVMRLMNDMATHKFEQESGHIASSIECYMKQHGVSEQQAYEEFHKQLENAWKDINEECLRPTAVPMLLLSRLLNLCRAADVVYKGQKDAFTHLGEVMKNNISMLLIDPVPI
# VvivSHTPS27 = biological target: T2, VvivSHTPS27 (Vitis vinifera, UniProt A0A482AKK8)
# T2 construct: full-length ORF from cDNA; expressed in yeast GT051 under GAL1 promoter
# T2 sequence (A0A482AKK8 1-557): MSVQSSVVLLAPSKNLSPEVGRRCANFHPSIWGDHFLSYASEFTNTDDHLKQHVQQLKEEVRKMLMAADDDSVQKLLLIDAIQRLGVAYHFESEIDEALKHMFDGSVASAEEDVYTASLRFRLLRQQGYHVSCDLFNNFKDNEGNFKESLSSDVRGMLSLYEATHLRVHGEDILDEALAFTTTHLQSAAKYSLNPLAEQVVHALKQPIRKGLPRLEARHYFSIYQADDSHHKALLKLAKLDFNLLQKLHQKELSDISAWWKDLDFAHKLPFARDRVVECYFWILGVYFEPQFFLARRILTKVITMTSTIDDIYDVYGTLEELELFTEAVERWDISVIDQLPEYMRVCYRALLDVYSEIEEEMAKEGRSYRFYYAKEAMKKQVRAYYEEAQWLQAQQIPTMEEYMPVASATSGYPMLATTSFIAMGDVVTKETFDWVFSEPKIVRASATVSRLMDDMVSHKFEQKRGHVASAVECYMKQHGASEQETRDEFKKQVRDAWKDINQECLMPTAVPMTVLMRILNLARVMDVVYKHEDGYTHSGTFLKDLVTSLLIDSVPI
# VvivSBTPS01 = biological target: T3, VvivSBTPS01 (Vitis vinifera, UniProt A0A482ALZ4)
# T3 construct: full-length ORF from cDNA; expressed in yeast GT051 under GAL1 promoter
# T3 sequence (A0A482ALZ4 1-555): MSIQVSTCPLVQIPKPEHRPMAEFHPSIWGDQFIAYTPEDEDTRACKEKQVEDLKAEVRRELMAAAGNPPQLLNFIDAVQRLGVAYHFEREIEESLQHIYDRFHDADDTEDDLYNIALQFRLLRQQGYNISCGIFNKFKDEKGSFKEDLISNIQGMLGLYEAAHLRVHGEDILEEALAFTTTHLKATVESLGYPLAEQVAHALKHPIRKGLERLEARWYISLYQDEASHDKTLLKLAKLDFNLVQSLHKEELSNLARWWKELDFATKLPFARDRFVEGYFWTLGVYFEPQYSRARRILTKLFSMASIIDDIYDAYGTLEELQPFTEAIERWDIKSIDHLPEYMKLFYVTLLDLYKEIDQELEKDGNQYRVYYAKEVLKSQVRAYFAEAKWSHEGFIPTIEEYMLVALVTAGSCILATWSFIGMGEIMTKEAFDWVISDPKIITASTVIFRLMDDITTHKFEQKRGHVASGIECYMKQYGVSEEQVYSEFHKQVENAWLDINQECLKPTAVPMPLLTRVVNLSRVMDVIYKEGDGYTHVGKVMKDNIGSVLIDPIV
# VvivMATPS01 = biological target: T4, VvivMATPS01 (Vitis vinifera, UniProt A0A482ANT9)
# T4 construct: full-length ORF from cDNA; expressed in yeast GT051 under GAL1 promoter
# T4 sequence (A0A482ANT9 1-555): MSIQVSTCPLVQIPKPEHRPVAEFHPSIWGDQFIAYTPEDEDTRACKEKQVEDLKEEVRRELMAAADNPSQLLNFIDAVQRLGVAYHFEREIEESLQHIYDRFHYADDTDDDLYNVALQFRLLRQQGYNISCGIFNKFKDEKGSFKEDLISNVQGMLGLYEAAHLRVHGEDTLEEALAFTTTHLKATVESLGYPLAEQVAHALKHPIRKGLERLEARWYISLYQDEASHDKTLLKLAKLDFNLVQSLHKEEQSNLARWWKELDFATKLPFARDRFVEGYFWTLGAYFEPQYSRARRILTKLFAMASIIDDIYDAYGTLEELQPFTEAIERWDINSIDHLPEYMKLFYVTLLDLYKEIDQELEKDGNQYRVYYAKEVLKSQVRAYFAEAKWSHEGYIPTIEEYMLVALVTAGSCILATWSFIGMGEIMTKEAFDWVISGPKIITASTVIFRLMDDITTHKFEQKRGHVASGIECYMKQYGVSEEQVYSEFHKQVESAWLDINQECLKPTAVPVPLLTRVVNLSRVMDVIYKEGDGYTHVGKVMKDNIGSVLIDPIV
# VvivSBTPS02 = biological target: T5, VvivSBTPS02 (Vitis vinifera, UniProt A0A482AJK8)
# T5 construct: full-length ORF from cDNA; expressed in yeast GT051 under GAL1 promoter
# T5 sequence (A0A482AJK8 1-555): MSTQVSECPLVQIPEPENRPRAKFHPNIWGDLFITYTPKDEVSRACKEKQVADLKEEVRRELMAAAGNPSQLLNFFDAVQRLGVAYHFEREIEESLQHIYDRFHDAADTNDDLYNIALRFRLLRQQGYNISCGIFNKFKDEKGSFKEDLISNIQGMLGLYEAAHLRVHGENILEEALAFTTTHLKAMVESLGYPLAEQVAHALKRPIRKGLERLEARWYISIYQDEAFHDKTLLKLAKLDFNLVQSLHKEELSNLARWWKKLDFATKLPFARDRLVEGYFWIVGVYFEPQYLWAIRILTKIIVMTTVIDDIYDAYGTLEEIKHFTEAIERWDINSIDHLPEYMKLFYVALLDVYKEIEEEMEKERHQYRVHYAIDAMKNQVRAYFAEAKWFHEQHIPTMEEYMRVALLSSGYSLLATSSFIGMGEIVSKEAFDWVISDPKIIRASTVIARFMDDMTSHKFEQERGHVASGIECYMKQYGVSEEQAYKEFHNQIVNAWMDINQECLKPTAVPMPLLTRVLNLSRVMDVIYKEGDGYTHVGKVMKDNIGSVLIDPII
# VvivMATPS27 = biological target: T6, VvivMATPS27 (Vitis vinifera, UniProt E5GAF4)
# T6 construct: full-length ORF from cDNA; expressed in yeast GT051 under GAL1 promoter
# T6 sequence (E5GAF4 1-557): T2 sequence (A0A482AKK8 1-557) with F27Y
# VvivMATPS28 = biological target: T7, VvivMATPS28 (Vitis vinifera, UniProt A0A482AJV9)
# T7 construct: full-length ORF from cDNA; expressed in yeast GT051 under GAL1 promoter
# T7 sequence (A0A482AJV9 1-558): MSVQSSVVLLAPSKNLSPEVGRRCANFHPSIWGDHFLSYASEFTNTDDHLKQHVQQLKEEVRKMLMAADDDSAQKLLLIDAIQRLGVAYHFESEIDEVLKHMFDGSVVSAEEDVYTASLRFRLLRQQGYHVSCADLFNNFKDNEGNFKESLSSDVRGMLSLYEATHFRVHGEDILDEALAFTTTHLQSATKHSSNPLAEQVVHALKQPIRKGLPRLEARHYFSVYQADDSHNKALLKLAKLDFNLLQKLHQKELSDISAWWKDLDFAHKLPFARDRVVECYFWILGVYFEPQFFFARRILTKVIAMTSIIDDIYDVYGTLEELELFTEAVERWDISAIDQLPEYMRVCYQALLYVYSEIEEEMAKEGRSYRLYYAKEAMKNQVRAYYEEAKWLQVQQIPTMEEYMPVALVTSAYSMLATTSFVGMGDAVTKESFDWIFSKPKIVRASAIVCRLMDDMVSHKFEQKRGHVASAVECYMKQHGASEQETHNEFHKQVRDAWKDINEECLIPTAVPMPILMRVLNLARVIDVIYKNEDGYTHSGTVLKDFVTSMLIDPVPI
smiles,measurement,setting,value
CC(C)=CCC/C(C)=C/CC/C(C)=C/COP(=O)(O)OP(=O)(O)O [FPP],"in vivo yeast expression, HS-SPME-GC-MS of volatiles",VvivMATPS10,increase the metabolic flux for the FPP terpene precursor
same,"in vivo yeast expression, HS-SPME-GC-MS of volatiles",VvivSHTPS27,increase the metabolic flux for the FPP terpene precursor
same,"in vivo yeast expression, HS-SPME-GC-MS of volatiles",VvivSBTPS01,increase the metabolic flux for the FPP terpene precursor
same,"in vivo yeast expression, HS-SPME-GC-MS of volatiles",VvivMATPS01,increase the metabolic flux for the FPP terpene precursor
same,"in vivo yeast expression, HS-SPME-GC-MS of volatiles",VvivSBTPS02,increase the metabolic flux for the FPP terpene precursor
same,"in vivo yeast expression, HS-SPME-GC-MS of volatiles",VvivMATPS27,increase the metabolic flux for the FPP terpene precursor
same,"in vivo yeast expression, HS-SPME-GC-MS of volatiles",VvivMATPS28,increase the metabolic flux for the FPP terpene precursor
